In PubChem BioAssay AID248 (DTP/NCI, 2004):
Several values for one entry are separate records, joined by “and”; a condition that tells them apart may be missing. Equal values may be shown once. Inconclusive results and toxic doses are left out. Rule as the data show it: active = T/C of 150% or more; inactive = T/C below 125%.

Test system: L1210 leukemia ip in BDF1 mice, survival T/C
Experiment: NCI In Vivo Anticancer Drug Screen. Data for tumor model L1210 Leukemia (intraperitoneal) in B6D2F1 (BDF1) mice
Settings: endpoint: mean survival time, higher = longer survival
Outline: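 Value reflects the ratio of survival in compound-treated mice to survival in vehicle-treated controls, with both groups carrying the same transplanted tumor.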

[1] = dose: 100.0 mg/kg/injection, schedule: Q01DX009 (ip), vehicle: saline
[2] = dose: 100.0 mg/kg/injection, schedule: Q04DX003 (ip), vehicle: saline
[3] = dose: 200.0 mg/kg/injection, schedule: Q01DX009 (ip), vehicle: saline
[4] = dose: 200.0 mg/kg/injection, schedule: Q04DX003 (ip), vehicle: saline
[5] = dose: 400.0 mg/kg/injection, schedule: Q01DX009 (ip), vehicle: saline
[6] = dose: 400.0 mg/kg/injection, schedule: Q04DX003 (ip), vehicle: saline
[7] = dose: 100.0 mg/kg/injection, schedule: Q01DX001 (ip), vehicle: saline
[8] = dose: 200.0 mg/kg/injection, schedule: Q01DX001 (ip), vehicle: saline
[9] = dose: 50.0 mg/kg/injection, schedule: Q01DX009 (ip), vehicle: Klucel (hydroxypropylcellulose) (HPC)
[10] = dose: 100.0 mg/kg/injection, schedule: Q01DX001 (ip), vehicle: carboxymethylcellulose (CMC)
[11] = dose: 200.0 mg/kg/injection, schedule: Q01DX001 (ip), vehicle: carboxymethylcellulose (CMC)
[12] = dose: 400.0 mg/kg/injection, schedule: Q01DX001 (ip), vehicle: carboxymethylcellulose (CMC)
[13] = dose: 100.0 mg/kg/injection, schedule: Q04DX003 (ip), vehicle: saline with Tween-80
[14] = dose: 200.0 mg/kg/injection, schedule: Q04DX003 (ip), vehicle: saline with Tween-80
[15] = dose: 400.0 mg/kg/injection, schedule: Q04DX003 (ip), vehicle: saline with Tween-80
[16] = dose: 100.0 mg/kg/injection, schedule: Q01DX009 (ip), vehicle: saline with Tween-80
[17] = dose: 100.0 mg/kg/injection, schedule: Q04DX002 (ip), vehicle: saline with Tween-80
[18] = dose: 200.0 mg/kg/injection, schedule: Q01DX009 (ip), vehicle: saline with Tween-80
[19] = dose: 200.0 mg/kg/injection, schedule: Q04DX002 (ip), vehicle: saline with Tween-80
[20] = dose: 400.0 mg/kg/injection, schedule: Q01DX009 (ip), vehicle: saline with Tween-80
[21] = dose: 400.0 mg/kg/injection, schedule: Q04DX002 (ip), vehicle: saline with Tween-80
[22] = dose: 50.0 mg/kg/injection, schedule: Q04DX003 (ip), vehicle: saline
[23] = dose: 100.0 mg/kg/injection, schedule: Q04DX003 (ip), vehicle: Klucel (hydroxypropylcellulose) (HPC)
[24] = dose: 200.0 mg/kg/injection, schedule: Q04DX003 (ip), vehicle: Klucel (hydroxypropylcellulose) (HPC)
[25] = dose: 400.0 mg/kg/injection, schedule: Q04DX003 (ip), vehicle: Klucel (hydroxypropylcellulose) (HPC)
[26] = dose: 100.0 mg/kg/injection, schedule: Q01DX009 (ip), vehicle: Klucel (hydroxypropylcellulose) (HPC)
[27] = dose: 200.0 mg/kg/injection, schedule: Q01DX009 (ip), vehicle: Klucel (hydroxypropylcellulose) (HPC)

Measured: T/C

O=CN(Cc1cnccn1)Cc1cnccn1
inactive: [1] 96 % of control | [2] 93 % of control | [3] 98 % of control | [4] 96 % of control | [5] 94 % of control | [6] 96 % of control

CC(C)(C)C(=O)Nc1ccc(NS(=O)(=O)c2ccccc2)c(Cl)c1
inactive: dose: 50.0 mg/kg/injection, schedule: Q01DX001 (ip), vehicle: Klucel (hydroxypropylcellulose) (HPC) 108 % of control | dose: 100.0 mg/kg/injection, schedule: Q01DX001 (ip), vehicle: Klucel (hydroxypropylcellulose) (HPC) 97 % of control | dose: 200.0 mg/kg/injection, schedule: Q01DX001 (ip), vehicle: Klucel (hydroxypropylcellulose) (HPC) 109 % of control

C[N+](C)(C)CCOc1ccc([N+](=O)[O-])cc1
inactive: dose: 50.0 mg/kg/injection, schedule: Q01DX001 (ip), vehicle: saline 95 % of control | [7] 104 % of control | [8] 92 % of control

CCCN1CCCC(OC(=O)N(C)C)C1 (configuration not stated)
inactive: dose: 100.0 mg/kg/injection, schedule: Q04DX002 (ip), vehicle: Klucel (hydroxypropylcellulose) (HPC) 86 % of control | dose: 200.0 mg/kg/injection, schedule: Q04DX002 (ip), vehicle: Klucel (hydroxypropylcellulose) (HPC) 104 % of control

O=C1C[C@H]2CCCC[C@@H]2O1
inactive: dose: 75.0 mg/kg/injection, schedule: Q01DX001 (ip), vehicle: other 107 % of control | dose: 150.0 mg/kg/injection, schedule: Q01DX001 (ip), vehicle: other 105 % of control | dose: 300.0 mg/kg/injection, schedule: Q01DX001 (ip), vehicle: other 102 % of control

CC(=O)OC1CCC2(C)C(CCC3C4CC=C(C(C)=O)C4(C)OC(=O)CC32)C1 (configuration not stated)
inactive: dose: 12.5 mg/kg/injection, schedule: Q01DX009 (ip), vehicle: Klucel (hydroxypropylcellulose) (HPC) 98 % of control | dose: 25.0 mg/kg/injection, schedule: Q01DX009 (ip), vehicle: Klucel (hydroxypropylcellulose) (HPC) 96 % of control | [9] 98 % of control

CN(c1ccccc1)c1ccc([N+](=O)[O-])cc1[N+](=O)[O-]
inactive: [10] 98 % of control | [11] 102 % of control | [12] 107 % of control

COC(CC(=O)N1Cc2cc3ccccc3nc2/C1=C/c1ccco1)OC
inactive: [13] 104 % of control | [14] 96 % of control | [15] 98 % of control

CC(C)(C)CC(C)(C)c1ccc(OCCOc2ccc(C(=O)O)cc2N)cc1
inactive: [7] 92 % of control | [8] 96 % of control

O=C(/C=C/c1ccccc1)CC(=O)c1ccccc1
inactive: dose: 100.0 mg/kg/injection, schedule: Q04DX003 (ip), vehicle: DMSO 102 % of control | dose: 200.0 mg/kg/injection, schedule: Q04DX003 (ip), vehicle: DMSO 97 % of control | dose: 400.0 mg/kg/injection, schedule: Q04DX003 (ip), vehicle: DMSO 96 % of control

CCCCCCCCCCCC(=O)Nc1ccc2ccccc2c1
inactive: [16] 93 % of control and 97 % of control | [17] 105 % of control and 107 % of control | [13] 105 % of control | [18] 107 % of control and 88 % of control | [19] 93 % of control and 89 % of control | [14] 94 % of control | [20] 96 % of control and 90 % of control | [21] 94 % of control and 117 % of control | [15] 95 % of control

CC1(C)OC2C(CO)OC(OCc3ccccc3)C2O1 (configuration not stated)
inactive: [22] 100 % of control | [2] 91 % of control | [4] 105 % of control | [6] 88 % of control

COC(=O)c1cc(C(C)=O)ccc1OC(=O)c1ccccc1
inactive: [16] 98 % of control | [13] 88 % of control | [18] 94 % of control | [14] 90 % of control | [20] 100 % of control | [15] 108 % of control

COc1cc(NC2=C(Cl)C(=O)C(Nc3cc(OC)c(OC)c(OC)c3)=C(Cl)C2=O)cc(OC)c1OC
inactive: [23] 119 % of control | [24] 95 % of control | [25] 98 % of control

CSC1CCCC(=O)C1 (configuration not stated)
inactive: [26] 98 % of control | [23] 96 % of control | [27] 101 % of control | [24] 97 % of control | dose: 400.0 mg/kg/injection, schedule: Q01DX009 (ip), vehicle: Klucel (hydroxypropylcellulose) (HPC) 96 % of control | [25] 105 % of control

Cc1ccc(N2C(=O)c3cc4ccccc4c(-c4ccccn4)c3C2=O)cc1
inactive: dose: 12.5 mg/kg/injection, schedule: Q04DX003 (ip), vehicle: Klucel (hydroxypropylcellulose) (HPC) 103 % of control | dose: 25.0 mg/kg/injection, schedule: Q04DX003 (ip), vehicle: Klucel (hydroxypropylcellulose) (HPC) 103 % of control | dose: 50.0 mg/kg/injection, schedule: Q04DX003 (ip), vehicle: Klucel (hydroxypropylcellulose) (HPC) 103 % of control | [23] 94 % of control

Cc1ccccc1N(C)C
inactive: dose: 50.0 mg/kg/injection, schedule: Q04DX002 (ip), vehicle: saline with Tween-80 106 % of control | [17] 98 % of control | [19] 92 % of control

CNc1nc(N(C)C)nc(C)c1[N+](=O)[O-]
inactive: [9] 91 % of control | [26] 98 % of control | [27] 105 % of control

CCOC(=O)NC(S(=O)(=O)O)S(=O)(=O)O.[Tl]
inactive: dose: 25.0 mg/kg/injection, schedule: Q01DX001 (ip), vehicle: saline with Tween-80 102 % of control

CC(=O)CC(O)(C(F)(F)F)C(F)(F)F
inactive: [1] 105 % of control | [3] 101 % of control | [5] 93 % of control

Cc1c2c(cc3c1CCCC3)CCCC2
inactive: dose: 100.0 mg/kg/injection, schedule: Q01DX001 (ip), vehicle: saline with Tween-80 93 % of control | dose: 200.0 mg/kg/injection, schedule: Q01DX001 (ip), vehicle: saline with Tween-80 93 % of control | dose: 400.0 mg/kg/injection, schedule: Q01DX001 (ip), vehicle: saline with Tween-80 92 % of control

COc1ccc(C(=O)CBr)c(OC)c1
inactive: dose: 12.5 mg/kg/injection, schedule: Q04DX003 (ip), vehicle: saline 104 % of control | dose: 25.0 mg/kg/injection, schedule: Q01DX009 (ip), vehicle: saline with Tween-80 96 % of control | dose: 25.0 mg/kg/injection, schedule: Q04DX003 (ip), vehicle: saline 97 % of control | [22] 93 % of control | [13] 97 % of control

CCN(c1ccccc1)C1CCCCC1=O (configuration not stated)
inactive: [7] 101 % of control | [8] 106 % of control | dose: 400.0 mg/kg/injection, schedule: Q01DX001 (ip), vehicle: saline 104 % of control

NCc1ccc(NC(=O)c2ccc(C(=O)Nc3ccc(CN)cc3)cc2)cc1
inactive: dose: 15.0 mg/kg/injection, schedule: Q01DX Z (ip), vehicle: water 97 % of control | dose: 20.0 mg/kg/injection, schedule: Q01DX Z (ip), vehicle: water 102 % of control | dose: 30.0 mg/kg/injection, schedule: Q01DX Z (ip), vehicle: water 96 % of control | dose: 40.0 mg/kg/injection, schedule: Q01DX Z (ip), vehicle: water 102 % of control

O=C(O)c1ccccc1N=Cc1ccccc1Cl
inactive: [17] 101 % of control | [19] 108 % of control | [21] 93 % of control

O=[N+]([O-])c1ccc2c(c1)Cc1c-2cc(I)c(O)c1I
inactive: [10] 96 % of control | [11] 98 % of control | [12] 98 % of control

CCC(C)(CC(=O)O)CC(=O)O
inactive: [1] 107 % of control | [2] 93 % of control | [3] 93 % of control | [4] 90 % of control | [5] 96 % of control | [6] 92 % of control

CCC1N2CCc3cc(OC)c(OC)cc3C2CCC1(O)Cc1ccccn1 (configuration not stated)
inactive: dose: 100.0 mg/kg/injection, schedule: Q04DX003 (ip), vehicle: carboxymethylcellulose (CMC) 101 % of control | dose: 200.0 mg/kg/injection, schedule: Q04DX003 (ip), vehicle: carboxymethylcellulose (CMC) 101 % of control
